Experimental data from ChEMBL document CHEMBL3774370, “Structure-activity relationships (SAR) and structure-kinetic relationships (SKR) of sulphone-based CRTh2 antagonists” (Eur J Med Chem, 2016).

Key:
[1] = biological target: T1, Prostaglandin D2 receptor 2 (Homo sapiens, UniProt Q9Y5Y4); experiment: Displacement of [35S]-GTPgammaS from CRTH2 receptor (unknown origin) expressed in CHOK1 cell membrane after 1 hr by liquid scintillation counter; type: cell membranes, CHO-K1
T1 sequence (Q9Y5Y4 whole entry): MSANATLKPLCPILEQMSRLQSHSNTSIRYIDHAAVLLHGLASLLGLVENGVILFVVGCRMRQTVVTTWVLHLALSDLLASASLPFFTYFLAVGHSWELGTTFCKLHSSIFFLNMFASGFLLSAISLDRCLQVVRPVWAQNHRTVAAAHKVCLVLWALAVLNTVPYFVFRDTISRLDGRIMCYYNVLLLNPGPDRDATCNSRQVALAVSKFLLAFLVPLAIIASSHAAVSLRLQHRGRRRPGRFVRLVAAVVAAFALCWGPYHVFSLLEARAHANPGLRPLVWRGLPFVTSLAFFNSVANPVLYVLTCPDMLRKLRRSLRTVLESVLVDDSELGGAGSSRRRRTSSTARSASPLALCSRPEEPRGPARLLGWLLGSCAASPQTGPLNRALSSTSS

[2] = system: Prostaglandin D2 receptor 2, CRTh2 (Homo sapiens); experiment: Antagonist activity at CRTH2 receptor (unknown origin) expressed in CHOK1 cells assessed as dissociation half life measured up to 25 hrs by GTPgammaS assay; settings: CHO-K1
[3] = biological target: T2, Prostaglandin D2 receptor 2 (Homo sapiens) (UniProt Q9Y5Y4); experiment: Displacement of [35S]-GTPgammaS from CRTH2 receptor (unknown origin) expressed in CHOK1 cell membrane at 10 uM after 1 hr by liquid scintillation counter; type: cell membranes; settings: CHO-K1
T2 sequence (whole entry): T1 sequence (Q9Y5Y4 whole entry)

SMILES | IC50 [1] [nM] | T1/2 [2] [h] | inhibition [3] [%]
O=C(O)Cn1c(-c2ccccc2)nn(Cc2ccccc2S(=O)(=O)c2ccccc2)c1=O | 2400 | – | –
Cc1c(CC(=O)O)c(-c2ccccc2)nn1Cc1ccccc1S(=O)(=O)c1ccccc1 | – | 0.1 | –
O=C(O)Cn1nc(-c2ccccc2)cc(Cc2ccccc2S(=O)(=O)c2ccccc2)c1=O | – | – | < 25
Cc1ccc2c(CC(=O)O)c(C)n(Cc3ccccc3S(=O)(=O)c3ccccc3)c2n1 | 14 | 1.3 | –
O=C(O)Cn1nc(-c2ccccc2)n(Cc2ccccc2S(=O)(=O)c2ccccc2)c1=O | – | – | < 25
O=C(O)Cc1nc(Cc2ccccc2S(=O)(=O)c2ccccc2)n2ccccc12 | 3000 | – | –
O=C(O)Cc1ccc(=O)n(Cc2ccccc2S(=O)(=O)c2ccccc2)c1 | 10000 | – | –
Cc1c(CC(=O)O)c2ccncn2c1Cc1ccccc1S(=O)(=O)c1ccccc1 | 28 | – | –
O=C(O)Cc1cc(Cc2ccccc2S(=O)(=O)c2ccccc2)c2nc(C(F)(F)F)ccn12 | 47 | 0.05 | –
O=C(O)Cc1nn(Cc2ccccc2S(=O)(=O)c2ccccc2)c(=O)c2ccccc12 | 65 | 0.04 | –
Cc1c(Cc2ccccc2S(=O)(=O)c2ccccc2)c(-c2ccccc2)nn1CC(=O)O | 85 | – | –
O=C(O)Cc1cccn(Cc2ccccc2S(=O)(=O)c2ccccc2)c1=O | – | – | < 25
O=C(O)Cn1nc(Cc2ccccc2S(=O)(=O)c2ccccc2)c2ccccc2c1=O | – | – | < 25
O=C(O)CN1c2cccnc2N(Cc2ccccc2S(=O)(=O)c2ccccc2)S1(=O)=O | 1600 | – | –
O=C(O)Cc1cc(Cl)c(=O)n(Cc2ccccc2S(=O)(=O)c2ccccc2)c1 | 860 | – | –

More lines, now with the values ahead:

IC50 [1] [nM] | T1/2 [2] [h] | inhibition [3] [%] | SMILES
14 | 1.3 | – | Cc1c(Cc2ccccc2S(=O)(=O)c2ccccc2)c2cc(F)ccc2n1CC(=O)O
970 | – | – | Cc1c(Cc2ccccc2S(=O)(=O)c2ccccc2)c(=O)n(-c2ccccc2)n1CC(=O)O
5 | – | – | COc1ccc(S(=O)(=O)c2ccc(F)cc2)c(Cc2c(C)c(CC(=O)O)c3ccncn23)c1
2 | 21 | – | Cc1c(Cc2ccccc2S(=O)(=O)c2ccc(F)cc2)c2c(n1CC(=O)O)CCCC2=O
4 | 13 | – | COc1ccc(S(=O)(=O)c2ccc(F)cc2)c(Cn2c(C)c(CC(=O)O)c3ccc(C)nc32)c1
10000 | – | – | Cc1c(-c2ccccc2)n(CC(=O)O)c(=O)n1Cc1ccccc1S(=O)(=O)c1ccc(F)cc1
2 | 21 | – | COc1ccc(S(=O)(=O)c2ccc(F)cc2)c(Cc2c3c(n(CC(=O)O)c2C)CCCC3=O)c1
104 | – | – | Cc1c(Cc2ccccc2S(=O)(=O)c2ccc(F)cc2)c2c(n1CC(=O)O)CCCC2
18 | – | – | COc1ccc(S(=O)(=O)c2ccc(F)cc2)c(Cn2cc(CC(=O)O)c3ccc(C)nc32)c1
8 | 0.6 | – | Cc1c(Cc2ccccc2S(=O)(=O)c2ccc(F)cc2)nc(-c2ccccc2)n1CC(=O)O
